For 19 compounds, IC50 results are on record in the Kinase Knowledgebase extract (Sharma et al. 2016).

SMILES strings stand for the structures. pIC50: −log10 of the molar value. A value given as a limit tells only on which side of the number the result lay.

Sequence of ROCK2 (human) (O75116 whole entry, looked up): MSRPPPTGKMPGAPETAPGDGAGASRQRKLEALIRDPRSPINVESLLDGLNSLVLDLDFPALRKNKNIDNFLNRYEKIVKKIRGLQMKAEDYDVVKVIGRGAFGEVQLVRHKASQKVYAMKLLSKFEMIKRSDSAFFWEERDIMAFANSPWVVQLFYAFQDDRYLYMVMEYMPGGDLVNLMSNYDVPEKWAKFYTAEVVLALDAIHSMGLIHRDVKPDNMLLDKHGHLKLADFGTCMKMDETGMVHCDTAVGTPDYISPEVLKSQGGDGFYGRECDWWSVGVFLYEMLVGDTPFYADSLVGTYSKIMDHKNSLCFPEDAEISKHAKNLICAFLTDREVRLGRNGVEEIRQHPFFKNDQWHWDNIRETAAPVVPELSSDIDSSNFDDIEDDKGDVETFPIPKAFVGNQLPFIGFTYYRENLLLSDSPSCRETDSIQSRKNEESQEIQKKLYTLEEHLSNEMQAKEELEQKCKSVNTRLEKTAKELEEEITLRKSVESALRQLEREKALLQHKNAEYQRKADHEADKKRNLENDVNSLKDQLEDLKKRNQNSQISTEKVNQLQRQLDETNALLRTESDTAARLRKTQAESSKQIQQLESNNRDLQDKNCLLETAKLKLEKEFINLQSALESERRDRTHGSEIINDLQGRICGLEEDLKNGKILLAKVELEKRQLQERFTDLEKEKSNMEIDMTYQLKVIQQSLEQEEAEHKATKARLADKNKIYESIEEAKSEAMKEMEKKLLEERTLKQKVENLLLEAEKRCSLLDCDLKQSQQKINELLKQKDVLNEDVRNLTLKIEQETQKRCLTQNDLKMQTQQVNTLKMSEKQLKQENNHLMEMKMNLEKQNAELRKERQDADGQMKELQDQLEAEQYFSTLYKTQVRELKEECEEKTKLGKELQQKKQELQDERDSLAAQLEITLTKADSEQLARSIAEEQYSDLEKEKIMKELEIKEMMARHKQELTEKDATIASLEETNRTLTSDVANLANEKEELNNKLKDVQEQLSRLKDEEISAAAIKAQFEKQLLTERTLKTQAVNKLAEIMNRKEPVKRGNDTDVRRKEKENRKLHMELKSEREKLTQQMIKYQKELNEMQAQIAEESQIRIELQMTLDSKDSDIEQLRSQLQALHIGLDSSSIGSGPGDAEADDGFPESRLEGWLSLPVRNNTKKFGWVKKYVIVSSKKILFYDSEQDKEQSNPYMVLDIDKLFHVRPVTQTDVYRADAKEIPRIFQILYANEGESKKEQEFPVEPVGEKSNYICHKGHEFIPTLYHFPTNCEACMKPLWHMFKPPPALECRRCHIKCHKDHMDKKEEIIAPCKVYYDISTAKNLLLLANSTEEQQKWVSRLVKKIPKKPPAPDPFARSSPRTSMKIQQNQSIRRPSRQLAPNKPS

The test addresses ROCK2 (human) (UniProt O75116). In words: Assessment of ROCK2 Kinase Activity.
The term pIC50 denotes −log10 of the IC50, conventionally taken in molar units. `O=c1[nH]ccc2cc(OC3CCC(N4CCCCC4)CC3)c(Cl)cc12` (centres undefined): the pIC50 was ≥ 6.00.
In the case of `N[C@@H]1CC[C@H](Oc2ccc3c(=O)[nH]ccc3c2)C1`, the pIC50 was ≥ 6.00.
Regarding `O=c1[nH]ccc2cc(O[C@H]3CC[C@H](N4CCOCC4)CC3)c(Cl)cc12`, the pIC50 is ≥ 6.00.
As for `O=c1[nH]ccc2cc(O[C@H]3CC[C@@H](N4CCOCC4)CC3)c(Cl)cc12`, the pIC50 is ≥ 6.00.
To `CCC[C@]1(N)CCC[C@H](Oc2cc3cc[nH]c(=O)c3cc2Cl)CCC1` belongs ≥ 6.00; to `O=C(O)CN[C@H]1CC[C@@H](Oc2cc3cc[nH]c(=O)c3cc2Cl)CC1`, ≥ 6.00.
The same measure for `CN1CCN([C@H]2CC[C@@H](Oc3cc4cc[nH]c(=O)c4cc3Cl)CC2)CC1`: ≥ 6.00.
In the case of `NC(=O)C1CCN(C2CCC(Oc3cc4cc[nH]c(=O)c4cc3Cl)CC2)CC1` (centres undefined), the pIC50 is ≥ 6.00.
Consider `CN1CCN([C@H]2CC[C@H](Oc3cc4cc[nH]c(=O)c4cc3Cl)CC2)CC1`, for which the negative-log IC50 (pIC50) is ≥ 6.00.
Consider `N[C@H]1C[C@H](COc2cc3cc[nH]c(=O)c3cc2Cl)C1`, for which the pIC50 was ≥ 6.00.
The same measure for `O=c1[nH]ccc2cc(O[C@H]3CC[C@@H](N4CCCC4)CC3)c(Cl)cc12`: ≥ 6.00.
The same measure for `O=c1[nH]ccc2cc(O[C@H]3CC[C@H](N4CCCC4)CC3)c(Cl)cc12`: ≥ 6.00.
The same measure for `Cc1cc2c(=O)[nH]ccc2cc1O[C@@H]1CCC[C@H](N)CC1`: ≥ 6.00; for `CCC[C@]1(N)CCC[C@@H](Oc2cc3cc[nH]c(=O)c3cc2Cl)CCC1`: ≥ 6.00; for `O=C(CCC1CCNCC1)N[C@H]1CC[C@@H](Oc2cc3cc[nH]c(=O)c3cc2Cl)CC1`: ≥ 6.00.
Turning to `N[C@H]1CCC[C@@H](Oc2cc3cc[nH]c(=O)c3cc2Cl)CC1`, the pIC50 was ≥ 6.00.
For `N[C@H]1CC[C@H](Oc2cc3cc[nH]c(=O)c3cc2Cl)C1`, the pIC50 was ≥ 6.00.
To `NC1CC(Oc2cc3cc[nH]c(=O)c3cc2Cl)C1` (centres undefined) belongs ≥ 6.00.
In the case of `O=C(CC1CCNCC1)N[C@H]1CC[C@@H](Oc2cc3cc[nH]c(=O)c3cc2Cl)CC1`, the pIC50 was ≥ 6.00.
